Experimental data reported in US12209087B2, “AKT1 modulators” (Alterome Therapeutics, Inc., priority 2022, dated 2025).

Biological target: T1, full length AKT E17K (Homo sapiens, UniProt P31749, E17K)
T1 construct: host or cells: HEK-293 (ATCC CRL-1573)
Assay: NanoBRET Target Engagement (TE) Assay
Format: cell-based
Details: competitive tracer displacement in living cells, read-out: AKT1 E17K IC50
Outline: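 Compound and tracer incubated 2 h before luminescence at donor 450 nm and acceptor 600 nm, with extracellular signal inhibited. EC50 by sigmoidal variable-slope regression.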

T1 sequence (P31749 whole entry E17K): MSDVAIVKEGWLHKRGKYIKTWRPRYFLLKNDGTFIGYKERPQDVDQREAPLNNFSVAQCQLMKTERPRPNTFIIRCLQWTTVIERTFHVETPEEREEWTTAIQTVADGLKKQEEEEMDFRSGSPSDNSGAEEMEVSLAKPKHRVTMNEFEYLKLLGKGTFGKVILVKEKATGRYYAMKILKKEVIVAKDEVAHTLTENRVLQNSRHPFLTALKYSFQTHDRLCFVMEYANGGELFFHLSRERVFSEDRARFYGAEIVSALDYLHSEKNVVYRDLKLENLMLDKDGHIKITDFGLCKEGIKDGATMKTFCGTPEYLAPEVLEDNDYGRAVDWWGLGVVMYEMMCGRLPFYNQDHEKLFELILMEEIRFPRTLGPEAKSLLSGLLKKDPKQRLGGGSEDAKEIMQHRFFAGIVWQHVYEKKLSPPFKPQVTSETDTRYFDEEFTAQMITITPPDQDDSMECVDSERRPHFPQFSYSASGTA

SMILES | IC50 [nM]
N#Cc1ccncc1C(=O)NCc1ccc(-n2c(-c3cccnc3N)nc3cccnc32)cc1 [Example 100, N-(4-(2-(2-Aminopyridin-3-yl)-3H-imidazo[4,5-b]pyridin-3-yl)benzyl)-4-cyanonicotinamide] | 600 to 10000
N#Cc1cccnc1C(=O)NCc1ccc(-n2c(-c3cccnc3N)nc3cccnc32)cc1 [Example 101, N-(4-(2-(2-Aminopyridin-3-yl)-3H-imidazo[4,5-b]pyridin-3-yl)benzyl)-3-cyanopicolinamide] | 600 to 10000
N#Cc1ccc(C(=O)N2CCN(Cc3ccc(-n4c(-c5cccnc5N)nc5cccnc54)cc3)CC2)cn1 [Example 102, 5-(4-(4-(2-(2-Aminopyridin-3-yl)-3H-imidazo[4,5-b]pyridin-3-yl)benzyl)piperazine-1-carbonyl)picolinonitrile] | 600 to 10000
N#Cc1ccc(C(=O)NCc2ccc(-n3c(-c4cccnc4N)nc4cc(-c5ccccc5)cnc43)cc2)cn1 [Example 106, N-(4-(2-(2-Aminopyridin-3-yl)-6-phenyl-3H-imidazo[4,5-b]pyridin-3-yl)benzyl)-6-cyanonicotinamide] | 600 to 10000
N#Cc1cc(C(=O)NC2CCN(Cc3ccc(-n4c(-c5cccnc5N)nc5cc(-c6ccccc6)cnc54)cc3)CC2)ccn1 [Example 107, N-(1-(4-(2-(2-Aminopyridin-3-yl)-6-phenyl-3H-imidazo[4,5-b]pyridin-3-yl)benzyl)piperidin-4-yl)-2-cyanoisonicotinamide] | 600 to 10000
N#Cc1cccc(C(=O)NCc2ccc(-n3c(-c4cccnc4N)nc4cccnc43)cc2)n1 [Example 108, N-(4-(2-(2-Aminopyridin-3-yl)-3H-imidazo[4,5-b]pyridin-3-yl)benzyl)-6-cyanopicolinamide] | 600 to 10000
N#Cc1cc(C(=O)N2CCN(Cc3ccc(-n4c(-c5cccnc5N)nc5cccnc54)cc3)CC2)ccn1 [Example 109, 4-(4-(4-(2-(2-Aminopyridin-3-yl)-3H-imidazo[4,5-b]pyridin-3-yl)benzyl)piperazine-1-carbonyl)picolinonitrile] | 600 to 10000
N#Cc1cccnc1C(=O)N1CCN(Cc2ccc(-n3c(-c4cccnc4N)nc4cccnc43)cc2)CC1 [Example 110, 2-(4-(4-(2-(2-Aminopyridin-3-yl)-3H-imidazo[4,5-b]pyridin-3-yl)benzyl)piperazine-1-carbonyl)nicotinonitrile] | 600 to 10000
N#Cc1ccc(C(=O)N2CCN(Cc3ccc(-n4c(-c5cccnc5N)nc5cc(-c6ccccc6)cnc54)cc3)CC2)cn1 [Example 111, 5-(4-(4-(2-(2-Aminopyridin-3-yl)-6-phenyl-3H-imidazo[4,5-b]pyridin-3-yl)benzyl)piperazine-1-carbonyl)picolinonitrile] | 600 to 10000
N#Cc1cc(C(=O)NCc2ccc(-n3c(-c4cccnc4N)nc4cccnc43)cc2)ncn1 [Example 113, N-(4-(2-(2-Aminopyridin-3-yl)-3H-imidazo[4,5-b]pyridin-3-yl)benzyl)-6-cyanopyrimidine-4-carboxamide] | 600 to 10000
N#Cc1cc(C(=O)N2CCN(Cc3ccc(-n4c(-c5cccnc5N)nc5cccnc54)cc3)CC2)ncn1 [Example 114, 6-(4-(4-(2-(2-Aminopyridin-3-yl)-3H-imidazo[4,5-b]pyridin-3-yl)benzyl)piperazine-1-carbonyl)pyrimidine-4-carbonitrile] | 60 to 600
N#Cc1cc(C(=O)N2CCN(Cc3ccc(-n4c(-c5cccnc5N)nc5ccc(-c6ccccc6)nc54)cc3)CC2)ncn1 [Example 116, 6-(4-(4-(2-(2-Aminopyridin-3-yl)-5-phenyl-3H-imidazo[4,5-b]pyridin-3-yl)benzyl)piperazine-1-carbonyl)pyrimidine-4-carbonitrile] | < 15
N#Cc1cc(C(=O)NC2CCN(Cc3ccc(-n4c(-c5cccnc5N)nc5ccc(-c6ccccc6)nc54)cc3)CC2)ncn1 [Example 117, N-(1-(4-(2-(2-aminopyridin-3-yl)-5-phenyl-3H-imidazo[4,5-b]pyridin-3-yl)benzyl)piperidin-4-yl)-6-cyanopyrimidine-4-carboxamide] | 15 to 60
N#Cc1ncc(C(=O)NCc2ccc(-n3c(-c4cccnc4N)nc4cccnc43)cc2)cn1 [Example 119, N-(4-(2-(2-Aminopyridin-3-yl)-3H-imidazo[4,5-b]pyridin-3-yl)benzyl)-2-cyanopyrimidine-5-carboxamide] | 600 to 10000
N#Cc1ccc(C(=O)NCc2ccc(-n3c(-c4cccnc4N)nc4cccnc43)cc2)cn1 [Example 121, N-(4-(2-(2-Aminopyridin-3-yl)-3H-imidazo[4,5-b]pyridin-3-yl)benzyl)-6-cyanonicotinamide] | 600 to 10000
N#Cc1cc(C(=O)NCc2ccc(-n3c(-c4cccnc4N)nc4cccnc43)cc2)ccn1 [Example 122, N-(4-(2-(2-Aminopyridin-3-yl)-3H-imidazo[4,5-b]pyridin-3-yl)benzyl)-2-cyanoisonicotinamide] | 600 to 10000
N#Cc1cncc(C(=O)NCc2ccc(-n3c(-c4cccnc4N)nc4cccnc43)cc2)c1 [Example 123, N-(4-(2-(2-Aminopyridin-3-yl)-3H-imidazo[4,5-b]pyridin-3-yl)benzyl)-5-cyanonicotinamide] | 600 to 10000

SMILES | IC50 [nM]
N#Cc1ccc(C(=O)NCc2ccc(-n3c(-c4cccnc4N)nc4cccnc43)cc2)nc1 [Example 124, N-(4-(2-(2-Aminopyridin-3-yl)-3H-imidazo[4,5-b]pyridin-3-yl)benzyl)-5-cyanopicolinamide] | 600 to 10000
N#Cc1cc(NCc2ccc(-n3c(-c4cccnc4N)nc4cccnc43)cc2)ccn1 [Example 127, 4-((4-(2-(2-Aminopyridin-3-yl)-3H-imidazo[4,5-b]pyridin-3-yl)benzyl)amino)picolinonitrile] | 600 to 10000
N#Cc1ccc(NCc2ccc(-n3c(-c4cccnc4N)nc4cccnc43)cc2)cn1 [Example 128, 5-((4-(2-(2-Aminopyridin-3-yl)-3H-imidazo[4,5-b]pyridin-3-yl)benzyl)amino)picolinonitrile] | 600 to 10000
N#Cc1cccc(NCc2ccc(-n3c(-c4cccnc4N)nc4cccnc43)cc2)n1 [Example 130, 6-((4-(2-(2-Aminopyridin-3-yl)-3H-imidazo[4,5-b]pyridin-3-yl)benzyl)amino)picolinonitrile] | 600 to 10000
N#Cc1cncc(NCc2ccc(-n3c(-c4cccnc4N)nc4cccnc43)cc2)c1 [Example 131, 5-((4-(2-(2-Aminopyridin-3-yl)-3H-imidazo[4,5-b]pyridin-3-yl)benzyl)amino)nicotinonitrile] | 600 to 10000
N#Cc1ccnc(NCc2ccc(-n3c(-c4cccnc4N)nc4cccnc43)cc2)c1 [Example 132, 2-((4-(2-(2-Aminopyridin-3-yl)-3H-imidazo[4,5-b]pyridin-3-yl)benzyl)amino)isonicotinonitrile] | 600 to 10000
N#Cc1cncc(NCc2ccc(-n3c(-c4cccnc4N)nc4cccnc43)cc2)n1 [Example 133, 6-((4-(2-(2-Aminopyridin-3-yl)-3H-imidazo[4,5-b]pyridin-3-yl)benzyl)amino)pyrazine-2-carbonitrile] | 600 to 10000
N#Cc1ccnc(NCc2ccc(-n3c(-c4cccnc4N)nc4cccnc43)cc2)n1 [Example 134, 2-((4-(2-(2-Aminopyridin-3-yl)-3H-imidazo[4,5-b]pyridin-3-yl)benzyl)amino)pyrimidine-4-carbonitrile] | 600 to 10000
N#Cc1cc(NCc2ccc(-n3c(-c4cccnc4N)nc4cccnc43)cc2)ncn1 [Example 135, 6-((4-(2-(2-aminopyridin-3-yl)-3H-imidazo[4,5-b]pyridin-3-yl)benzyl)amino)pyrimidine-4-carbonitrile] | 600 to 10000
N#Cc1cc(C(=O)N2CCN(Cc3ccc(-n4c(-c5cccnc5N)nc5cc(-c6ccccc6)cnc54)cc3)CC2)ccn1 [Example 137, 4-(4-(4-(2-(2-Aminopyridin-3-yl)-6-phenyl-3H-imidazo[4,5-b]pyridin-3-yl)benzyl)piperazine-1-carbonyl)picolinonitrile] | 600 to 10000
N#Cc1cccc(C(=O)N2CCN(Cc3ccc(-n4c(-c5cccnc5N)nc5ccc(-c6ccccc6)nc54)cc3)CC2)n1 [Example 138, 6-(4-(4-(2-(2-Aminopyridin-3-yl)-5-phenyl-3H-imidazo[4,5-b]pyridin-3-yl)benzyl)piperazine-1-carbonyl)picolinonitrile] | 60 to 600
N#Cc1cncc(C(=O)N2CCN(Cc3ccc(-n4c(-c5cccnc5N)nc5ccc(-c6ccccc6)nc54)cc3)CC2)c1 [Example 139, 5-(4-(4-(2-(2-Aminopyridin-3-yl)-5-phenyl-3H-imidazo[4,5-b]pyridin-3-yl)benzyl)piperazine-1-carbonyl)nicotinonitrile] | 600 to 10000
N#Cc1ccnc(C(=O)N2CCN(Cc3ccc(-n4c(-c5cccnc5N)nc5ccc(-c6ccccc6)nc54)cc3)CC2)c1 [Example 140, 2-(4-(4-(2-(2-Aminopyridin-3-yl)-5-phenyl-3H-imidazo[4,5-b]pyridin-3-yl)benzyl)piperazine-1-carbonyl)isonicotinonitrile] | 60 to 600
N#Cc1nccc(C(=O)N2CCN(Cc3ccc(-n4c(-c5cccnc5N)nc5ccc(-c6ccccc6)nc54)cc3)CC2)n1 [Example 141, 4-(4-(4-(2-(2-Aminopyridin-3-yl)-5-phenyl-3H-imidazo[4,5-b]pyridin-3-yl)benzyl)piperazine-1-carbonyl)pyrimidine-2-carbonitrile] | < 15
N#Cc1ccc(C(=O)N2CCN(Cc3ccc(-n4c(-c5cccnc5N)nc5ccc(-c6ccccc6)nc54)cc3)CC2)nc1 [Example 142, 6-(4-(4-(2-(2-Aminopyridin-3-yl)-5-phenyl-3H-imidazo[4,5-b]pyridin-3-yl)benzyl)piperazine-1-carbonyl)nicotinonitrile] | 600 to 10000
N#Cc1ncccc1C(=O)N1CCN(Cc2ccc(-n3c(-c4cccnc4N)nc4ccc(-c5ccccc5)nc43)cc2)CC1 [Example 143, 3-(4-(4-(2-(2-Aminopyridin-3-yl)-5-phenyl-3H-imidazo[4,5-b]pyridin-3-yl)benzyl)piperazine-1-carbonyl)picolinonitrile] | 60 to 600
